Data from patent publication US4330553A, “7-Oxo-PGI2 -derivatives and process for the preparation thereof and pharmaceutical compositions containing same” (Chinoin Gyogyszer es Vegyeszeti Termekek Gyara R.T., priority 1979, dated 1982).
In brackets after ≈: the same amount, converted by molar mass. Counter-ions that a name gives are not always drawn. Like-named read-outs stand apart in the source and are kept apart here.

Assays:
thrombocytes = assay: Thrombocyte aggregation inhibiting activity in human plasma enriched with thrombocytes (aggregation induced with ADP or collagen); format: cell-based
From the text: ID50 concentrations in case of aggregation generated with ADP and collagen resp. in plasma enriched with thrombocytes (PRB) isolated from human blood are as disclosed hereinbelow. As a comparison ID50 concentration values obtained with PGI2 sodium salt under the same test conditions are given.

[1] = acidic or neutral medium; decomposes to 6-keto-PGF1α; cited from earlier work
[2] = aggregation induced with ADP, read-out: ID50, thrombocyte aggregation inhibiting activity, ADP
[3] = aggregation induced with collagen, read-out: ID50, thrombocyte aggregation inhibiting activity, collagen

Row | IC50 (thrombocytes; [2]) | IC50 (thrombocytes; [3]) | SMILES | stability of PGI2 [1]
1 | 0.015 µg/mL | 0.08 µg/mL | CCCCC[C@H](O)/C=C/[C@@H]1[C@H]2C(=O)/C(=C/CCCC(=O)O)O[C@H]2C[C@H]1O [Sodium salt of 7-oxo-PGI2] | 
2 |  |  | CCCCC[C@H](O)/C=C/[C@@H]1[C@H]2C/C(=C/CCCC(=O)O)O[C@H]2C[C@H]1O [PGI2] | immediately decomposes
3 | 0.001 to 0.002 µg/mL | 0.001 to 0.002 µg/mL | CCCCC[C@H](O)/C=C/[C@@H]1[C@H]2C/C(=C/CCCC(=O)O)O[C@H]2C[C@H]1O [Sodium salt of PGI2, reference compound] | 
4 | 0.1 to 0.2 µg/mL (≈ 0.263 to 0.526 µM) | 0.05 µg/mL (≈ 0.131 µM) | CCCCC[C@H](O)/C=C/[C@@H]1[C@H]2C(=O)/C(=C/CCCC(=O)OC)O[C@H]2C[C@H]1O [7-Oxo-PGI2-methyl ester, 7-Oxo-PGI2-methylester] | 
